Several values for one entry are separate records, joined by “and”; a condition that tells them apart may be missing. Identical values can stand only once. Entries after “also recorded” stand apart in the source; their conditions may differ. Like-named read-outs stand apart in the source and are kept apart here.
Legend:
[1] = target: tyrosinase; conditions: cited from earlier work
[2] = tested on: mushroom tyrosinase; assay: Tyrosinase inhibition assay (L-DOPA substrate); assay type: biochemical; conditions: for Enzyme inhibition Tyrosinase: 50 μM; for IC50: mean ± SD of three independent experiments
Protocol: (§1) Since the compounds were dissolved in DMSO, in the assays carried out without compounds, DMSO was added to the reaction mixture as blank control. […] Data from activity experiments were recorded using an Ultrospec 2100 spectrophotometer (Biochrom Ltd., Cambridge, UK).
The inhibition of tyrosinase was monitored by using DOPA as substrate. The reaction solution contained phosphate buffer (25 mM, pH 6.8) and mushroom tyrosinase (100 U/mL), with or without test samples.

[3] = target: porcine pancreatic elastase (Sus scrofa, UniProt P00772); assay: Elastase inhibition assay (SANA substrate); assay type: biochemical; conditions: for inhibition at 50 µM: read-out: Enzyme inhibition Elastase; for IC50: mean ± SD of three independent experiments; for inhibition at 50 µM / Enzyme inhibition Elastase: 50 μM
Protocol: as §1
The inhibition of elastase was determined by measuring the production of p-nitroaniline during the reaction of the enzyme with the N-succ-(Ala)3-nitroanilide (SANA) substrate. The assay was carried out in Tris-HCl buffer (0.1 M, pH 8.0) containing porcine pancreatic elastase (3.3 µg/mL). The reaction mixture was incubated in the presence or in the absence of the test compounds for 20 minutes and, once the substrate (1.6 mM) was added, the enzyme activity was monitored at 410 nm.

[4] = tested on: Collagenase from Clostridium histolyticum; assay: Collagenase inhibition assay (FALGPA substrate); assay type: biochemical; conditions: for Enzyme inhibition Collagenase: 100 μM; for IC50: mean ± SD of three independent experiments
Protocol: as §1, with “Results from all the inhibition tests described below were reported as a percentage of the blank control. Since” for “Since”
Collagenase from Clostridium histolyticum (1 U/mL) was prepared in 0.05 M Tricine buffer (pH 7.5), with 0.4 M NaCl and 0.01 M CaCl2, and incubated with different concentrations of test samples for 15 minutes. After adding the N-(3-[2-Furyl]-acryloyl)-Leu-Gly-Pro-Ala (FALGPA) substrate, prepared in the same buffer solution reaching a final concentration of 0.8 mM, the absorbance was registered at 340 nm. Epigallocatechin gallate was used as a positive control.

[5] = In vitro determination of the sun protection factor (UV absorbance, Mansur equation); assay type: physicochemical; conditions: compounds 0.1 mg/mL, absorbance 290–320 nm
Protocol: The sun protection factor of coumarins’ derivatives was measured by the UV absorbance method, as previously reported. The absorbances of the compounds (0.1 mg/mL) were registered in the range of 290–320 nm, with 5 nm increments, and three measurements were performed at each point. The SPF was determined by using the Mansur Equation [23]: SPF=CF × Σ290320 × EE(λ) × I(λ) × Abs(λ) where CF = correction factor (10); EE (λ) = erythemogenic effect of radiation with wavelength λ; I(λ) = solar intensity spectrum; Abs(λ) = spectrophotometric absorbance values at wavelength λ. The values of EE (λ) × I(λ) are constant as determined by Sayre et al. (Table 5).

[6] = tested on: Human skin keratinocyte cell line (HaCaT); assay: HaCaT cell viability (MTT assay); assay type: cell-based; conditions: 10–200 μM, 24 h
Protocol: Human skin keratinocyte cell line (HaCaT; CLS–Cell Lines Service, Eppelheim, Germany) was cultured in Dulbecco’s Modified Eagle’s Medium (DMEM) with 10% fetal bovine serum (FBS; Gibco, NY, USA) and 1% penicillin/streptomycin at 37 °C in a humidified atmosphere with 5% CO2. Cell viability was determined by the MTT (3-(4,5-dimethylthiazol-2-yl)-2,5-diphenyltetrazolium bromide) colorimetric assay, as previously reported. Briefly, HaCaT cells were seeded in 96-well plates and incubated with compounds at different concentrations (0–200 µM). After 24 h, cells were labelled with MTT solution for 3 h at 37 °C. DMSO was added to the formed violet formazan precipitates and the absorbance of each well was measured at 560 nm.

[7] = target: T1, hyaluronidase (Bos taurus, UniProt Q2YDK3); assay: Hyaluronidase inhibition assay; assay type: biochemical; conditions: ratio of IC50 values
T1 sequence (Q2YDK3 36-553): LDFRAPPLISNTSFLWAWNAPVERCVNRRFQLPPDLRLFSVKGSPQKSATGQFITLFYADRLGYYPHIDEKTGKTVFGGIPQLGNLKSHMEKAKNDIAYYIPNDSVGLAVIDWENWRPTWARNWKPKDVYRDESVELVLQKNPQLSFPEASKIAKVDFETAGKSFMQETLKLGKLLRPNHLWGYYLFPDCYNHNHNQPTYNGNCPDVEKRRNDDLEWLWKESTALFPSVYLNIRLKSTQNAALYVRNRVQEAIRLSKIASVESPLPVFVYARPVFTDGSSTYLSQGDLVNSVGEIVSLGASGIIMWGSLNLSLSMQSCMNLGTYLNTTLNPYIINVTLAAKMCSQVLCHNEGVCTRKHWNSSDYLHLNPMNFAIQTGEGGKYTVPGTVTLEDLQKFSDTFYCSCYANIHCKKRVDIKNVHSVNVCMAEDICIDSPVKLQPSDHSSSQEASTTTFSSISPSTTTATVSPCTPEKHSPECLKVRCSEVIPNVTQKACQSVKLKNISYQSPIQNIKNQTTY
Protocol: as §1
Inhibition of hyaluronidase was determined following the method reported by Chompoo and co-authors. A 5 μL test sample was incubated with 100 μL of enzyme solution (1.5 U) containing 20 mM sodium phosphate buffer (pH 7.0) with 77 mM NaCl and bovine serum albumin (BSA) 0.01%. […] After 10 minutes at room temperature, the absorbance was monitored at 600 nm.

[8] = already described by our research group

Sequence of porcine pancreatic elastase (P00772 27-266): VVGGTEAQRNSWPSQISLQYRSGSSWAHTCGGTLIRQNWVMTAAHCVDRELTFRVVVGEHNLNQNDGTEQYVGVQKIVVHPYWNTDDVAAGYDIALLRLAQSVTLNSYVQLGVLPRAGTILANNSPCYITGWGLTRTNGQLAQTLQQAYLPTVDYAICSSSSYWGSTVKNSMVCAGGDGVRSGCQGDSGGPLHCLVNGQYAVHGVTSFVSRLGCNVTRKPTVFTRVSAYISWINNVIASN

SMILES | IC50 [1] [µM] | IC50 [1, 8] [µM] | Enzyme inhibition Tyrosinase [2] | IC50 [2] | times more active than the standard inhibitor kojic acid (tyrosinase) ([2]; ratio of IC50 values) [times] | inhibition at 50 µM [3] [%] | IC50 [3] [µM] | Enzyme inhibition Collagenase [4] | IC50 [4] [µM] | SPF [5] | Cytotoxicity on HaCaT cell viability [6] | Enzyme inhibition Elastase [3] | times more active than the reference compound oleanolic acid (hyaluronidase) [7] [times] | times more active than the reference compound epigallocatechin gallate (collagenase) ([4]; ratio of IC50 values) [times]
Nc1cc2ccc(O)cc2oc1=O [3-Amino-7-hydroxycoumarin] | 50 | – | – | – | – | – | – | – | – | – | – | – | – | –
O=c1oc2c(O)cc(O)cc2cc1-c1cc(O)c(O)c(O)c1 [6,8-Dihydroxy-3-(3',4',5'-trihydroxyphenyl)coumarin] | – | 270 | – | – | – | – | – | – | – | – | – | – | – | –
O=c1oc2c(O)cc(Br)cc2cc1-c1ccc(O)cc1 [6-Bromo-8-hydroxy-3-(4'-hydroxyphenyl)coumarin] | – | 215 | – | – | – | – | – | – | – | – | – | – | – | –
O=c1oc2cc(O)cc(O)c2cc1-c1cccc(Br)c1 [Compound 2, 3-(3′-Bromophenyl)-5,7-dihydroxycoumarin] | – | – | 79.2% | 7.03 µM and 7 µM | 2.6 | 20.3 | > 50 | 44.3% | 110 ± 2.8 | 4.52 ± 0.22 | non-cytotoxic; also recorded: no toxicity | – | – | –
O=c1oc2cc(O)cc(O)c2cc1-c1ccccc1Br [Compound 3, 3-(2′-Bromophenyl)-5,7-dihydroxycoumarin] | – | – | 29.3% | > 50 µM | – | – | > 50 | 37.1% | 125 ± 10.2 | 5.89 ± 0.21 | – | N.I | – | –
O=c1oc2cc(O)c(O)cc2cc1-c1ccc(Br)cc1 [Compound 4, 3-(4′-Bromophenyl)-6,7-dihydroxycoumarin] | – | – | 58.3% | 39.9 ± 0.7 µM | – | 30.5 | > 50 | N.I. | > 150 | – | – | – | 1.9 | –
O=c1oc2cc(O)c(O)cc2cc1-c1cccc(Br)c1 [Compound 5, 3-(3′-Bromophenyl)-6,7-dihydroxycoumarin] | – | – | 80.3% | 8.25 µM and 8.3 µM | – | 68.4 | 37.4 | 18.2% | > 150 | – | – | – | – | –
O=c1oc2cc(O)c(O)cc2cc1-c1ccccc1Br [Compound 6, 3-(2′-Bromophenyl)-6,7-dihydroxycoumarin] | – | – | 25.8% | > 50 µM | – | 23.8 | > 50 | 38.1% | 140 ± 8 | 8.08 and 8.08 ± 0.01 | – | – | – | –
O=c1oc2c(O)c(O)ccc2cc1-c1ccc(Br)cc1 [Compound 7, 3-(4′-Bromophenyl)-7,8-dihydroxycoumarin] | – | – | 9.6% | > 50 µM | – | 15.6 | > 50 | N.I. | > 150 | 5.88 ± 1.35 | – | – | – | –
O=c1oc2c(O)c(O)ccc2cc1-c1cccc(Br)c1 [Compound 8, 3-(3′-Bromophenyl)-7,8-dihydroxycoumarin] | – | – | 33.6% | > 50 µM | – | 2.2 | > 50 | 39.9% | 122 ± 4.8 | 6.94 ± 2.57 | – | – | – | –
O=c1oc2c(O)c(O)ccc2cc1-c1ccccc1Br [Compound 9, 3-(2′-Bromophenyl)-7,8-dihydroxycoumarin] | – | – | 15.7% | > 50 µM | – | – | > 50 | 14.7% | > 150 | 4.27 ± 0.91 | – | N.I | – | –
O=c1oc2cc(O)ccc2cc1-c1cccc(Br)c1 [Compound 10, 3-(3′-Bromophenyl)-7-hydroxycoumarin] | – | – | 56.9% | 42 ± 1.1 µM | – | 38.9 | > 50 | 13.2% | > 150 | 6.70 ± 1.30 | – | – | – | –
O=c1oc2cc(O)c(O)cc2cc1-c1cccc(O)c1 [Compound 11, 6,7-Dihydroxy-3-(3′-hydroxyphenyl)coumarin] | – | – | 8.6% | > 50 µM | – | 29.6 | > 50 | 35.7% | 143 ± 7.1 | 5.44 and 5.44 ± 0.64 | – | – | – | –
O=c1oc2cc(O)c(O)cc2cc1-c1ccccc1O [Compound 12, 6,7-Dihydroxy-3-(2′-hydroxyphenyl)coumarin] | – | – | 22.7% | > 50 µM | – | 24.5 | > 50 | 39.3% | 134 ± 6.6 | 5.64 and 5.64 ± 1.43 | – | – | – | –
O=c1oc2ccc3ccccc3c2cc1-c1ccc(O)cc1 [Compound 13, 3-(4′-Hydroxyphenyl)benzo[f]coumarin] | – | – | 23.2% | > 50 µM | – | 20.7 | > 50 | 51.5% | 96.8 ± 5.9 | 6.40 ± 1.53 | – | – | – | 1.25
O=c1oc2ccc3ccccc3c2cc1-c1cccc(O)c1 [Compound 14, 3-(3′-Hydroxyphenyl)benzo[f]coumarin] | – | – | 22.3% | > 50 µM | – | 35.3 | > 50 | 21.2% | > 150 | 5.08 ± 0.46 | – | – | – | –
O=c1oc2ccc3ccccc3c2cc1-c1ccccc1O [Compound 15, 3-(2′-Hydroxyphenyl)benzo[f]coumarin] | – | – | N.I | > 50 µM | – | – | > 50 | N.I. | > 150 | 6.89 ± 3.28 | – | N.I | – | –
O=c1oc2ccc3ccccc3c2cc1-c1ccc(O)c(O)c1 [Compound 16, 3-(3′,4′-Dihydroxyphenyl)benzo[f]coumarin] | – | – | N.I | > 50 µM | – | 22.8 | > 50 | 7.9% | > 150 | 5.09 ± 1.35 | – | – | – | –
O=c1oc2ccc3ccccc3c2cc1-c1cc(O)cc(O)c1 [Compound 17, 3-(3′,5′-Dihydroxyphenyl)benzo[f]coumarin] | – | – | 10.0% | > 50 µM | – | 22.4 | > 50 | 15.6% | > 150 | 4.34 ± 0.66 | – | – | – | –
O=C(O[C@@H]1Cc2c(O)cc(O)cc2O[C@@H]1c1cc(O)c(O)c(O)c1)c1cc(O)c(O)c(O)c1 [Epigallocatechin gallate, reference compound] | – | – | – | – | – | – | – | – | 121 ± 6.2 | – | – | – | – | –
O=c1ccc2cc(O)c(O)cc2o1 [Esculetin] | – | 43 | – | – | – | – | – | – | – | – | – | – | – | –
